# ± gives the standard deviation of the averaged measurements.
# Columns and labels:
# Test in all cases: normalised growth rate inhibition (GR value) relative to DMSO control (GR (1 = untreated growth, 0 = cytostasis, <0 = cytotoxic)); higher = less growth inhibition
# Settings in all cases: 72 h
# BT20 = tested on: BT20
# Description: (§1)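 Breast cancer cell lines (BT-20, Hs 578T, MCF 10A, MCF7, MDA-MB-231, SK-BR-3) were plated in 384-well plates and treated 24 h later with drugs at six concentrations (0.04-10 µM). Viable cells were counted by Hoechst/dead-cell-stain imaging at 0 and 72 h. Counts were normalised to DMSO controls on the same plate to give the relative cell count and the growth-rate inhibition (GR) value; technical plate triplicates were averaged for each biological replicate.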
# HS578T = tested on: HS578T
# Description: as §1
# MCF10A = tested on: MCF10A
# Description: as §1
# MCF7 = tested on: MCF7
# Description: as §1
# MDAMB231 = tested on: MDAMB231
# Description: as §1
# SKBR3 = tested on: SKBR3
# Description: as §1
Compound,normalised growth rate inhibition (BT20; 0.04 µM),normalised growth rate inhibition (BT20; 0.12 µM),normalised growth rate inhibition (BT20; 0.37 µM),normalised growth rate inhibition (BT20; 1.11 µM),normalised growth rate inhibition (BT20; 3.33 µM),normalised growth rate inhibition (BT20; 10 µM),normalised growth rate inhibition (HS578T; 0.04 µM),normalised growth rate inhibition (HS578T; 0.12 µM),normalised growth rate inhibition (HS578T; 0.37 µM),normalised growth rate inhibition (HS578T; 1.11 µM),normalised growth rate inhibition (HS578T; 3.33 µM),normalised growth rate inhibition (HS578T; 10 µM),normalised growth rate inhibition (MCF10A; 0.04 µM),normalised growth rate inhibition (MCF10A; 0.12 µM),normalised growth rate inhibition (MCF10A; 0.37 µM),normalised growth rate inhibition (MCF10A; 1.11 µM),normalised growth rate inhibition (MCF10A; 3.33 µM),normalised growth rate inhibition (MCF10A; 10 µM),normalised growth rate inhibition (MCF7; 0.04 µM),normalised growth rate inhibition (MCF7; 0.12 µM),normalised growth rate inhibition (MCF7; 0.37 µM),normalised growth rate inhibition (MCF7; 1.11 µM),normalised growth rate inhibition (MCF7; 3.33 µM),normalised growth rate inhibition (MCF7; 10 µM),normalised growth rate inhibition (MDAMB231; 0.04 µM),normalised growth rate inhibition (MDAMB231; 0.12 µM),normalised growth rate inhibition (MDAMB231; 0.37 µM),normalised growth rate inhibition (MDAMB231; 1.11 µM),normalised growth rate inhibition (MDAMB231; 3.33 µM),normalised growth rate inhibition (MDAMB231; 10 µM),normalised growth rate inhibition (SKBR3; 0.04 µM),normalised growth rate inhibition (SKBR3; 0.12 µM),normalised growth rate inhibition (SKBR3; 0.37 µM),normalised growth rate inhibition (SKBR3; 1.11 µM),normalised growth rate inhibition (SKBR3; 3.33 µM),normalised growth rate inhibition (SKBR3; 10 µM)
Cc1cn(-c2cc(NC(=O)c3ccc(C)c(Nc4nccc(-c5cccnc5)n4)c3)cc(C(F)(F)F)c2)cn1 [nilotinib],1 ± 0.043,1.01 ± 0.044,1.02 ± 0.039,0.996 ± 0.043,1 ± 0.039,0.0181 ± 0.099,1.09 ± 0.056,1.1 ± 0.072,1.09 ± 0.078,1.07 ± 0.06,1.07 ± 0.093,0.028 ± 0.096,1 ± 0.036,0.991 ± 0.035,0.978 ± 0.029,0.992 ± 0.044,0.982 ± 0.035,0.507 ± 0.14,1.03 ± 0.021,1.04 ± 0.038,0.971 ± 0.021,0.958 ± 0.014,0.956 ± 0.059,0.0407 ± 0.15,0.943 ± 0.038,0.914 ± 0.099,0.863 ± 0.1,0.805 ± 0.14,0.818 ± 0.13,0.00998 ± 0.16,1.1 ± 0.074,1.11 ± 0.043,1.15 ± 0.029,1.11 ± 0.052,1.08 ± 0.068,0.208 ± 0.097
Cc1[nH]c(/C=C2\C(=O)Nc3ccc(S(=O)(=O)Cc4c(Cl)cccc4Cl)cc32)c(C)c1C(=O)N1CCC[C@@H]1CN1CCCC1,1.017 ± 0.0089,1.01 ± 0.052,1.003 ± 0.0079,0.976 ± 0.042,0.973 ± 0.035,0.22 ± 0.42,1 ± 0.028,1.002 ± 0.003,1 ± 0.011,0.96 ± 0.032,0.954 ± 0.018,-0.131 ± 0.58,0.991 ± 0.01,0.9827 ± 0.0045,0.9763 ± 0.0045,0.967 ± 0.012,0.9647 ± 0.0068,0.544 ± 0.43,1.06 ± 0.012,1.06 ± 0.073,1.05 ± 0.051,1.01 ± 0.059,0.923 ± 0.052,0.665 ± 0.17,1.03 ± 0.045,1.02 ± 0.069,1.02 ± 0.043,0.997 ± 0.053,0.94 ± 0.023,-0.343 ± 0.3,1.04 ± 0.071,1.06 ± 0.052,1.07 ± 0.087,1.06 ± 0.098,0.956 ± 0.047,0.012 ± 0.5
